“Also recorded” adds a separate entry of the source.
What was measured:
MIA-MIA interaction [1] = biological target: T1, MIA-MIA interaction (Homo sapiens, UniProt Q16674); assay: heterogeneous transition metal-based fluorescence polarization (HTFP) assay of MIA dimerization; type: binding; details: FIG. 3
T1 sequence (Q16674 25-131): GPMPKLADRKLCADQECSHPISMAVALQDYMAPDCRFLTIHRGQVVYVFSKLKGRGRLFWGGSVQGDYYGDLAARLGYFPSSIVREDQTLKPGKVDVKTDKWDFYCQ
Protocol: The dimerization of the MIA protein is for example measured by a heterogeneous transition metal-based fluorescence polarization (HTFP) assay, wherein the ratio P/P0 is measured. P is the fluorescence polarization signal of a MIA protein labeled with a transition metal complex in the presence of substrate bound MIA-protein and of a compound to be tested. P0 is the fluorescence polarization signal of free MIA-protein labeled with said luminescent transition metal complex in the absence of substrate bound MIA-protein and in the absence of the compound. In the absence of the compound, usually, the labeled MIA-protein would interact with the substrate bound MIA-protein, which, in turn, would contribute to a reduction in rotational mobility of the labeled MIA-protein, and therefore, the fluorescence polarization signal would increase upon such interaction. If, additionally, a compound is present that interferes with such interaction, no or little dimerization/aggregation occurs and no or little increase in fluorescence polarization signal would be detected. The smaller or even more negative P/P0 is, the stronger such interference with dimer formation and aggregation is, and the better such compound prevents or breaks up dimerization/aggregation of MIA protein. In an alternative embodiment, binding of the compound to MIA protein is determined by NMR, e.g., heteronuclear NMR, e.g., ^15N-^1H-HSQC-NMR.
All listed compounds that were screened for their ability to interfere with the MIA-MIA interaction (Table 1) in a heterogeneous transition metal-based fluorescence polarization (HTFP) assay previously developed (Riechers, A., et al., Heterogeneous transition metal-based fluorescence polarization (HTFP) assay for probing protein interactions. Biotechniques, 2009. 47(4): p. 837-44). […] The molecular structures of the compounds showing interference with the MIA-MIA interaction in the HTFP assay are shown in Table 1.

[2] = tested on: human Mel-Im melanoma cells; assay: Boyden chamber migration assay; type: cell-based; details: compound 1 μM, MIA 200 ng/mL, FIG. 4
Protocol: The melanoma cell line Mel-Im, established from a human metastatic bioptic sample (generous gift from Dr. Johnson, University of Munich, Germany) was used for the Boyden chamber migration experiments. All cells were maintained in DMEM (PAA, Pasching, Germany) supplemented with penicillin (400 U/mL), streptomycin (50 μg/mL), L-glutamine (300 μg/mL) and 10% fetal calf serum (Pan Biotech GmbH, Aidenbach, Germany) and split in a 1:6 ratio every three days. Migration assays were performed in Boyden Chambers containing polycarbonate filters with […] (Neuro Probe, Gaithersburg, Md., USA) essentially as described. MIA was added to the cell suspension at a final concentration of 200 ng/mL. Selected compounds were used at a final concentration of 1 μM. Experiments were carried out in triplicates and repeated at least three times.

human fibroblasts [3] = assay: proliferation of human fibroblasts; type: cell-based; details: 7.8 μM, in vitro, FIG. 5A
Protocol: (§1) In order to assess whether compounds of the present invention show any adverse effects on normal cells, human fibroblasts and kidney cells were treated with the compounds 1, 2, 3, 4, 5, and 6, respectively, in vitro at a concentration of 7.8 μM in analogy to previous studies (Schmidt, J., et al., Targeting melanoma metastasis and immunosuppression with a new mode of melanoma inhibitory activity (MIA) protein inhibition. PLoS One, 2012. 7(5): p. e37941; Riechers, A., et al., Heterogeneous transition metal-based fluorescence polarization (HTFP) assay for probing protein interactions. Biotechniques, 2009. 47(4): p. 837-44).

kidney cells HEK-293 [4] = assay: proliferation of kidney cells; type: cell-based, human; details: 7.8 μM, in vitro, HEK-293, FIG. 5C
Protocol: as §1

human fibroblasts [5] = assay: cellular attachment of human fibroblasts; type: cell-based; details: 7.8 μM, in vitro, FIG. 5B
Protocol: as §1

kidney cells HEK-293 [6] = assay: cellular attachment of kidney cells; type: cell-based, human; details: 7.8 μM, in vitro, HEK-293, FIG. 5D
Protocol: as §1

[7] = tested on: human melanoma cell line Mel Im; assay: proliferation of melanoma cell line Mel Im; type: cell-based; details: FIG. 6
MIA-MIA interaction [8] = biological target: T1, MIA-MIA interaction; details: disclosed in WO 2011/113604; cited from earlier work

Compound | fluorescence polarization of Ru-(bpy)3 labelled MIA (interference with the MIA-MIA interaction) (MIA-MIA interaction [1]) | effect on cellular attachment of human fibroblasts (human fibroblasts [5]) | effect on cellular attachment of kidney cells (kidney cells HEK-293 [6]) | MIA activity on melanoma cell migration [2] | effect on proliferation of human fibroblasts (human fibroblasts [3]) | effect on proliferation of kidney cells (kidney cells HEK-293 [4]) | proliferation of the human melanoma cell line Mel Im after treatment [7] | blocking of the MIA-MIA interaction (MIA-MIA interaction [8])
CS(=O)(=O)NCC#CCN1CCc2ccccc2C1 [Compound 2, N-[4-(1,2,3,4-tetrahydroisoquinolin-2-yl)but-2-yn-1-yl]methanesulfonamide] | significant decreases | no negative effects | no negative effects | reduction; also recorded: inhibition | no negative effects | no negative effects | could not be found | –
COc1ccc2[nH]c(CN3CCNCC3)nc2c1 [Compound 5, 5-methoxy-2-(piperazin-1-ylmethyl)-1H-1,3-Benzodiazole] | significant decreases | no negative effects | no negative effects | reduction | no negative effects | no negative effects | could not be found | –
AR71: a peptide having the amino acid sequence FHWRYPLPLPGQ (SEQ ID NO:1) | – | – | – | – | – | – | – | able to block the MIA-MIA interaction

Further lines, with some results ahead:

fluorescence polarization of Ru-(bpy)3 labelled MIA (interference with the MIA-MIA interaction) (MIA-MIA interaction [1]) | effect on cellular attachment of human fibroblasts (human fibroblasts [5]) | effect on cellular attachment of kidney cells (kidney cells HEK-293 [6]) | Compound | MIA activity on melanoma cell migration [2] | effect on proliferation of human fibroblasts (human fibroblasts [3]) | effect on proliferation of kidney cells (kidney cells HEK-293 [4]) | proliferation of the human melanoma cell line Mel Im after treatment [7] | blocking of the MIA-MIA interaction (MIA-MIA interaction [8])
significant decreases | no negative effects | no negative effects | CCC(C)N1CC(=O)C(c2nc3ccccc3[nH]2)=C1N (stereo not shown) [Compound 1, 5-amino-4-(1H-1,3-benzodiazol-2-yl)-1-(butan-2-yl)-2,3-dihydro-1H-pyrrol-3-one] | reduction; also recorded: inhibition | no negative effects | no negative effects | significant decrease; also recorded: inhibition | –
significant decreases | no negative effects | no negative effects | CCCCCNC(=O)Cc1cc(=O)[nH]c(=O)[nH]1 [Compound 3, 2-(2,6-dioxo-1,2,3,6-tetrahydropyrimidin-4-yl)-N-Pentylacetamide] | reduction; also recorded: inhibition | no negative effects | no negative effects | could not be found | –
significant decreases | no negative effects | no negative effects | CC(=O)c1c(C)cn(CC(O)CN2CCNCC2)c1C (stereo not shown) [Compound 4, 1-{1-[2-hydroxy-3-(piperazin-1-yl)propyl]-2,4-dimethyl-1H-pyrrol-3-yl}ethan-1-one] | reduction | no negative effects | no negative effects | could not be found | –
significant decreases | no negative effects | no negative effects | CCCCNC(=O)c1c(O)nc2c(C)cccn2c1=O [Compound 6, N-butyl-2-hydroxy-9-methyl-4-oxo-4H-pyrido[1,2-a]pyrimidine-3-carboxamide] | reduction | no negative effects | no negative effects | could not be found | –

Source: US10828281B2, “Non-hydrophobic compounds for use in treating metastasis and/or cartilage defect” (Friedrich-Alexander-Universität Erlangen-Nürnberg, priority 2015, dated 2020)
